Test systems include K-562 leukemia; 786-0 renal; NCI-H522 lung; SN12C renal; NCI-H23 lung; HL-60(TB) leukemia; HOP-92 NSCLC; M14 melanoma; SK-MEL-5 melanoma; SW-620 colon.
Common to all, as to assay: NCI-60 cell line screen, 48 h

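Five concentrations, 48 hours, 96-well plates. TGI: total growth inhibition.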 Bounds are passed on as bounds.

`Cc1cc2ccccc2n1CC(=O)N1CCCC1`: the TGI in the assay with K-562 leukemia, in the assay on 786-0 renal, with NCI-H522 lung, with SN12C renal, in the assay on NCI-H23 lung and in the assay on HL-60(TB) leukemia was above 100 µM each time. Moreover, the TGI in the assay with HOP-92 NSCLC, in the assay with M14 melanoma, in the assay on SK-MEL-5 melanoma and with SW-620 colon was above 100 µM each time.
For `Cc1ccc(C)c(COCCOCn2cc(Br)c(N)nc2=O)c1`, the TGI in the assay with K-562 leukemia, in the assay with 786-0 renal, with NCI-H522 lung, in the assay with SN12C renal, with NCI-H23 lung and in the assay with HL-60(TB) leukemia was above 100 µM each time. Besides, the TGI in the assay with HOP-92 NSCLC, with M14 melanoma and in the assay on SW-620 colon was above 100 µM in each case.
Turning to `O=c1c2ccccc2n2nnc3ccc(NCCCNCCNCCCNc4ccc5nnn6c7ccccc7c(=O)c4c56)c1c32`, the TGI in the assay with K-562 leukemia is above 50 µM; in the assay on 786-0 renal it was 21.3 µM; in the assay with NCI-H522 lung, 9.84 µM; in the assay with SN12C renal, 7.49 µM; in the assay on NCI-H23 lung, 15.3 µM; with HL-60(TB) leukemia, 23.5 µM. The TGI in the assay with HOP-92 NSCLC is above 50 µM; with M14 melanoma, above 30 µM; in the assay on SK-MEL-5 melanoma, above 50 µM; in the assay on SW-620 colon, above 22.6 µM.
Regarding `O=C1CCC2(CC1CCSc1ccccc1)OCCO2` (centres undefined), the TGI with K-562 leukemia, in the assay with 786-0 renal, in the assay with NCI-H522 lung, in the assay with NCI-H23 lung, in the assay on HL-60(TB) leukemia and in the assay on HOP-92 NSCLC was above 100 µM throughout. Moreover, the TGI in the assay on M14 melanoma, in the assay with SK-MEL-5 melanoma and in the assay on SW-620 colon was above 100 µM in each case.
For the compound `C=CC(C)(C)N[C@@H](C(=O)N1CCC[C@H]1c1nc(-c2nc(C(=O)OCC=C(C)C)c(C)o2)c(C)o1)C(C)C`, the TGI with K-562 leukemia is above 100 µM; in the assay on 786-0 renal, 44.5 µM; with NCI-H522 lung, 35.6 µM; in the assay on SN12C renal, 39.2 µM; with NCI-H23 lung, 48.1 µM; with HL-60(TB) leukemia, 93.9 µM. The TGI is 35 µM in the assay with HOP-92 NSCLC, 83.4 µM in the assay on M14 melanoma, 52 µM in the assay with SK-MEL-5 melanoma and 53.8 µM with SW-620 colon.
On to `O=C1c2ccccc2C(=O)c2c1ccc1c2N=C(c2ccc(F)cc2)CC(c2ccc(Cl)c(Cl)c2)N1` (centres undefined), for which the TGI in the assay with K-562 leukemia was found to be 33.5 µM; in the assay with NCI-H522 lung, 20.4 µM; with SN12C renal it was 32.4 µM; in the assay with NCI-H23 lung, 33.4 µM; with HL-60(TB) leukemia it was 35.9 µM; in the assay with HOP-92 NSCLC, 90 µM. The results for the TGI with M14 melanoma, in the assay on SK-MEL-5 melanoma and with SW-620 colon were 37.7 µM, 31 µM and 19 µM, respectively.
Turning to `Cn1c(-c2ccc[se]2)ccc1-c1ccc(CO)[se]1`, the TGI was above 100 µM in the assay on K-562 leukemia; above 100 µM in the assay on 786-0 renal; above 100 µM in the assay on NCI-H522 lung; above 100 µM with SN12C renal; above 84.3 µM in the assay on NCI-H23 lung; above 100 µM in the assay on HL-60(TB) leukemia. Also, the TGI is 43.2 µM with HOP-92 NSCLC, above 100 µM with M14 melanoma, above 100 µM in the assay on SK-MEL-5 melanoma and above 100 µM with SW-620 colon.
Consider `CCCn1c(=O)c2ccccc2[n+]2c(-c3ccc([N+](=O)[O-])cc3)csc12`, for which the TGI with K-562 leukemia was 69.4 µM; in the assay on 786-0 renal, 76.3 µM; with NCI-H522 lung it was 45.5 µM; in the assay on SN12C renal it was above 100 µM; in the assay on NCI-H23 lung it was above 100 µM; with HL-60(TB) leukemia, 57.9 µM. Besides, the TGI in the assay with HOP-92 NSCLC is above 100 µM; in the assay with M14 melanoma, above 100 µM; in the assay with SK-MEL-5 melanoma, 45.7 µM; in the assay with SW-620 colon it was above 100 µM.
With `O=C1CSC2=NCC3(NN12)c1ccccc1-c1ccccc13`, the TGI with K-562 leukemia, with 786-0 renal, in the assay with NCI-H522 lung, in the assay with SN12C renal, in the assay on NCI-H23 lung and in the assay on HL-60(TB) leukemia was above 10 µM throughout. Further, the TGI in the assay with HOP-92 NSCLC, with M14 melanoma, in the assay with SK-MEL-5 melanoma and in the assay on SW-620 colon was above 10 µM each time.
For `COc1ccc(C[C@H](N)C(=O)N2C[C@H](CO)C[C@H](n3ccc(=O)[nH]c3=O)C2)cc1`, the TGI with K-562 leukemia, in the assay with NCI-H522 lung, with SN12C renal, in the assay on NCI-H23 lung, in the assay with HL-60(TB) leukemia and in the assay on HOP-92 NSCLC was above 100 µM throughout. Also, the TGI with M14 melanoma, in the assay on SK-MEL-5 melanoma and with SW-620 colon was above 100 µM in each case.
`[N-]=[N+]=NC1CC(n2cc(COCC(F)(F)F)c(=O)[nH]c2=O)OC1CO` (centres undefined): the TGI in the assay with K-562 leukemia, in the assay with 786-0 renal, with NCI-H522 lung, with SN12C renal, in the assay with NCI-H23 lung and with HL-60(TB) leukemia was above 100 µM throughout. Also, the TGI in the assay on HOP-92 NSCLC, with M14 melanoma, in the assay on SK-MEL-5 melanoma and in the assay with SW-620 colon was above 100 µM each time.
For `CC(=Nc1c2ccccc2nc2ccccc12)N(C)C`, the TGI in the assay on K-562 leukemia was 25.4 µM; in the assay with 786-0 renal, above 100 µM; with NCI-H522 lung, 25.5 µM; in the assay on NCI-H23 lung, 41.1 µM; in the assay with HL-60(TB) leukemia it was 24 µM; in the assay with HOP-92 NSCLC, 37.2 µM. For the same compound, the results for the TGI in the assay on M14 melanoma and in the assay on SK-MEL-5 melanoma were 25.4 µM and 27.8 µM, respectively.
Take `O=C(OCCN1CCCCC1)C(c1ccccc1)C1(O)CCSCC1` (centres undefined): the TGI in the assay with K-562 leukemia, in the assay with 786-0 renal, with NCI-H522 lung, in the assay with SN12C renal, with NCI-H23 lung and in the assay with HL-60(TB) leukemia was above 100 µM in each case. Moreover, the TGI in the assay with HOP-92 NSCLC, with M14 melanoma, in the assay with SK-MEL-5 melanoma and in the assay with SW-620 colon was above 100 µM in each case.
Turning to `O=C(Nc1c(Cl)cc([N+](=O)[O-])cc1Cl)C(=O)C1C(=O)NC(=S)NC1=O`, the TGI with K-562 leukemia, with 786-0 renal, in the assay with NCI-H522 lung, in the assay with SN12C renal, in the assay with NCI-H23 lung and in the assay with HL-60(TB) leukemia was above 100 µM each time. The TGI in the assay with HOP-92 NSCLC, in the assay with M14 melanoma, in the assay with SK-MEL-5 melanoma and in the assay on SW-620 colon was above 100 µM each time.

The values above are taken from PubChem BioAssay (NCI).
